Consider one compound from patent publication US12188936B2, “Biomarkers and therapeutics for endocrine therapy resistance” (LUNELLA BIOTECH, INC., priority 2018, dated 2025).

Test [1] deals with MCF7-Y537S cells. Description: SRB survival assay (cell viability), 5-day exposure. The class given is cell-based, human. The settings on record: 4-OHT 1 μM, 5 days, vs control. The text has this:
For FIG. 1, ** indicates p<0.005.
On the technique in general: Sulforhodamine B stains cellular protein and so reports cell mass.

Test [2] relates to transfected MCF7 cell lines. Description: Annexin-V analysis (apoptosis, FACS). The class given is cell-based, human. Particulars: 1 μM for 72 hours. The text has this: (§1) One mechanism by which the Y537S mutation may promote mammosphere formation in the presence of Tamoxifen is by conferring resistance to apoptosis. Staining with annexin V may be used to detect apoptotic cells by its ability to bind to phosphatidylserine, a marker of apoptosis when it is on the outer leaflet of the plasma membrane. Increases in annexin V staining indicates an increase in apoptosis.
(§2) The data in FIGS. 4A-4C were obtained as follows. The transduced MCF7 cell lines were all plated in 6-well plates. On the next day, the cells were treated with 4-OHT (1 μM) for 72 hours. MCF7-EV cells were processed in parallel, as a negative control. […] For the data in these drawings, * indicates p<0.05.
(§3) Annexin-V analysis: Cell death was quantified by flow cytometry using propidium iodide (PI) and Annexin V-FITC (20). Briefly, 1.5×10^5 all the transfected cells were plated in 6 multi-well plate in complete media supplemented with 10% HiFBS. The next day, cells were treated with 1 μM of 4-OH-Tamoxifen (4-OHT) for 48 h and 72 h. Vehicle alone (DMSO) for control cells were processed in parallel. After 48 hours, cells were harvested and washed in cold phosphate-buffered saline (PBS). […] Cells were then analyzed by flow cytometry using a PE Texas Red signal detector for PI staining and a FITC signal detector to detect Annexin V binding. 30,000 events were recorded by FACS using Fortessa BD. […]

Test [3] deals with MCF7-Y537S cells. Description: Annexin-V analysis (apoptosis, FACS). The class given is cell-based, human. Particulars: 1 μM for 72 hours.
From the text: as §1, §2, §3

In test [4] the test system is other MCF7 cell lines (ESR1 WT, Y537N, ErbB2, EV). The settings on record: 4-OHT 1 μM, 5 days.
Method: To directly determine the validity of our model system, MCF7-Y537S cells were cultured for 5 days in the presence of Tamoxifen (1 μM) to assess its effect on cell viability. […] MCF7 cells were stably-transduced with either ESR1 (WT, Y537S, or Y537N) or ErbB2 (HER2), to genetically create a clinically relevant model of endocrine therapy resistance. Vector alone control MCF7 cells were generated in parallel (empty vector; EV; p-EV-105-puroR), as a negative control. […] The SRB assay was performed as a measure of cell viability and the experiment was carried out for 5 days.
Sulfo-rhodamine B (SRB) assay: SRB measures total biomass by staining cellular proteins.
Test [5] relates to MCF7-Y537S cells. Description: Mammosphere formation assay. The class given is cell-based, human. The settings on record: 72-hour pre-treatment with 1 μM, 5 days culture. On the procedure:
(§4) All of the transfected MCF7 cell lines were grown as mammospheres. […] In these figures, ** indicates p<0.005; and ns indicates not significant as evaluated by Student's t test.
(§5) MCF7 3D-mammosphere formation: A single cell suspension was prepared using enzymatic (lx Trypsin-EDTA, Sigma Aldrich, #T3924), and manual disaggregation (25 gauge needle). Cells were plated at a density of 500 cells/cm^2 in mammosphere medium (DMEM-F12+B27+20 ng/ml EGF+PenStrep) under non-adherent conditions, in culture dishes pre-coated with (2-hydroxyethylmethacrylate) (poly-HEMA, Sigma, #P3932), called “mammosphere plates.” Then, the cells were pre-treated for 72 hours with 1 μM of 4-OH-Tamoxifen. Vehicle alone (DMSO) control cells were processed in parallel. Afterwards, they were trypsined and seeded in mammosphere plates. Cells were grown for 5 days and maintained in a humidified incubator at 37° C. After 5 days of culture, 3D-spheres>50 μm were counted using an eye piece (“graticule”), and the percentage of cells plated which formed spheres was calculated and is referred to as percent mammosphere formation, and was normalized to one (1=100% MSF).

For test [6], the system named is transfected MCF7 cell lines (other than Y537S and ESR1 WT). Description: Mammosphere formation assay. The settings on record: all transfected MCF7 cell lines except Y537S and ESR1 (WT), 72-hour pre-treatment with 1 μM, 5 days culture. In kind it is cell-based, human. The procedure: as §4, §5

As for `CC/C(=C(\c1ccc(O)cc1)c1ccc(OCCN(C)C)cc1)c1ccccc1` [4-OHT, 4-OH-Tamoxifen], the entries for the “cell viability (SRB survival)” value (in the test on MCF7-Y537S cells [1]; in test [4]) were “clearly show resistance” and “significant inhibitory effects”, respectively. Besides, the “annexin V levels” value in test [2] is “increased in all transfected cell lines”. For the same compound, the “pro-apoptotic effect (annexin V levels)” value with MCF7-Y537S cells [3] is reported as “specifically resistant to the pro-apoptotic effects”. The mammosphere formation result in the test on MCF7-Y537S cells [5] is “remain largely unaffected”. For the same compound, the “mammosphere formation efficiency (MFE)” value in test [6] is recorded as “inhibited mammosphere formation efficiency”.
